Measurements from publication PMC6508865, “Dynamics of thymol dietary supplementation in quail (Coturnix japonica): Linking bioavailability, effects on egg yolk total fatty acids and performance traits” (PLoS ONE, 2019).
Where two headings read alike, the source gives them in different places.

Test: Thymol quantification in egg yolk (HS-SPME/GC-MS) during chronic dietary supplementation
Format: in vivo, Coturnix japonica
Conditions: for concentration at 2 days of supplementation / concentration at 9 days of supplementation / concentration at 16 days of supplementation / concentration at 26 days of supplementation / concentration at 17 days after supplement withdrawal: female, Japanese quail (Coturnix japonica), egg yolk, oral, read-out: THY concentration in egg yolk
Text: A total of 50 eighty-five days-old female quail of homogeneous body weights (251 ± 1 g; Mean ± SE) and in their egg-laying peak were selected from an initial group of 96 female individuals. All birds continued receiving a basal diet between 85 and 100 days of age and all variables (see below for details) were registered along this period (Pre-supplementation period, Fig 1). From 100 to 128 days of age (S period, Fig 1), females were randomly assigned to either a chronic dietary supplementation with one of 3 THY doses (THY2, THY4 and THY6; 10 females each) or to one of 2 control groups (basal diet, BASAL, and basal diet with vehicle solution, VEHICLE; 10 females each). Once finished the S period, half of the quail were slaughtered for histological analysis (n = 25; Slaughter 1, Fig 1) and the other half were subjected to a pS period of 21 days, during which all females received the BASAL diet (pS, Fig 1). After this period, the remaining 25 animals were also slaughtered for histological analysis (Slaughter 2, Fig 1). In this way, we assessed whether THY induced changes in variables indicative of tissue damage and if so, whether the potential damages could reverse after 3 weeks of supplement withdrawal.
To assess changes in egg yolk total FA composition, egg physical characteristics, laying rate, body weight, feed intake and general welfare, during the S and pS periods, five sampling points were defined (Sample points, Fig 1): one initial sample point (at 0 days of S); three sample points during the S period (at 7, 14 and 28 days of S); and one sample point at the end of the pS period (21 days of pS). It should be noted that for determinations of THY concentration, eggs and quail droppings were collected offset from the other variables measured by 2 days, thus were collected on days 2, 9, 16, and 26 days of S, and 17 days of pS, respectively.
Thymol was commercially obtained from Sigma-Aldrich (SAFC®, ⩾99%; FCC, Saint Louis, MO, USA). Supplemented quail were provided 2, 4 or 6.25 g of THY per kg of feed. For this end, THY was prepared in a 2.4, 4.8 and 7.5% w/v ethanolic solution and uniformly sprayed on fresh feed. The feed was prepared and administrated daily, to minimize THY volatilization from feed before its consumption by females. The doses were selected considering two factors. The first, the concentration range for which the transfer of THY to the chicken and/or quail egg has been established. Second, the concentrations of THY supplementation that have shown biological effects. […] In this context, THY4 is and intermediate dose between the last two. Nutrient and FA compositions of the diets supplied were identical between each other and are reported in S1, S2 and S3 Tables, and are in accordance with the National Research Council recommendation.
Egg yolks and droppings of each female were obtained at each sample point (Sample points, Fig 1) and THY concentration was immediately measured by head space-solid phase microextraction followed by gas chromatography-mass spectrometry (HS-SPME/GC-MS) according to Fernandez et al.. SPME was performed with a manual holder with 100 um polydimethylsiloxane (PDMS) fiber. An aliquot of egg yolk (3 g), droppings (5 g) or feed (5 g) was put in a sealed 20 mL glass vial, spiked at the corresponding level with the standard m-cresol (Sigma-Aldrich; ≥ 99% (GC); Saint Louis, MO, USA) stock solution, and vortexed for 5 min. The vials were placed in a water bath and the PDMS fiber was exposed to the headspace for 30 min at 60°C and 5 min at 40°C for egg yolk and droppings or feed, respectively. The fiber was then inserted directly into the GC injector for desorption at 250°C for 10 min in splitless mode. Chromatography analysis was carried out in a Perkin Elmer Clarus 600 equipped with a PSSI injector and a quadrupole MS detector (Perkin Elmer, USA). Turbo Mass 5.4.2 software was used to control and acquire data from GC–MS. […]

Cc1ccc(C(C)C)c(O)c1 [THY, 2 isopropyl-5-methylphenol]
Percentage of THY transferred to egg yolk in relation to the amount ingested (THY2, 2 g of thymol/kg of feed, 2 days of S): 0.02% | Percentage of THY transferred to egg yolk in relation to the amount ingested (THY2, 2 g of thymol/kg of feed, 9 days of S): 0.23% | Percentage of THY transferred to egg yolk in relation to the amount ingested (THY2, 2 g of thymol/kg of feed, 16 days of S): 0.22% | Percentage of THY transferred to egg yolk in relation to the amount ingested (THY2, 2 g of thymol/kg of feed, 26 days of S): 0.25% | Percentage of THY transferred to egg yolk in relation to the amount ingested (THY2, 2 g of thymol/kg of feed, pS, 17 days of supplement withdrawal): 0.03% | Percentage of THY transferred to egg yolk in relation to the amount ingested (THY4, 4 g of thymol/kg of feed, 2 days of S): 0.01% | Percentage of THY transferred to egg yolk in relation to the amount ingested (THY4, 4 g of thymol/kg of feed, 9 days of S): 0.17% | Percentage of THY transferred to egg yolk in relation to the amount ingested (THY4, 4 g of thymol/kg of feed, 16 days of S): 0.17% | Percentage of THY transferred to egg yolk in relation to the amount ingested (THY4, 4 g of thymol/kg of feed, 26 days of S): 0.16% | Percentage of THY transferred to egg yolk in relation to the amount ingested (THY4, 4 g of thymol/kg of feed, pS, 17 days of supplement withdrawal): 0.02% | Percentage of THY transferred to egg yolk in relation to the amount ingested (THY6, 6.25 g of thymol/kg of feed, 2 days of S): 0.02% | Percentage of THY transferred to egg yolk in relation to the amount ingested (THY6, 6.25 g of thymol/kg of feed, 9 days of S): 0.14% | Percentage of THY transferred to egg yolk in relation to the amount ingested (THY6, 6.25 g of thymol/kg of feed, 16 days of S): 0.13% | Percentage of THY transferred to egg yolk in relation to the amount ingested (THY6, 6.25 g of thymol/kg of feed, 26 days of S): 0.13% | Percentage of THY transferred to egg yolk in relation to the amount ingested (THY6, 6.25 g of thymol/kg of feed, pS, 17 days of supplement withdrawal): 0.03% | THY transferred to the egg yolk, of the amount THY ingested (during the plateau, across THY2, THY4, THY6): 0.13–0.25% | highest concentration of THY detected in egg yolk, molar equivalent (equivalent of 406 ng/g of egg yolk): ~ 3.05 uM | concentration at 2 days of supplementation (2 g/kg of feed, THY2, 2 g of thymol/kg of feed, 2 days of S): 12.5 ng/g | concentration at 9 days of supplementation (2 g/kg of feed, THY2, 2 g of thymol/kg of feed, 9 days of S): 156 ng/g | concentration at 16 days of supplementation (2 g/kg of feed, THY2, 2 g of thymol/kg of feed, 16 days of S): 150 ng/g | concentration at 26 days of supplementation (2 g/kg of feed, THY2, 2 g of thymol/kg of feed, 26 days of S): 169 ng/g | concentration at 17 days after supplement withdrawal (2 g/kg of feed, THY2, 2 g of thymol/kg of feed, pS, 17 days of supplement withdrawal): 17.9 ng/g | concentration at 2 days of supplementation (4 g/kg of feed, THY4, 4 g of thymol/kg of feed, 2 days of S): 26.1 ng/g | concentration at 9 days of supplementation (4 g/kg of feed, THY4, 4 g of thymol/kg of feed, 9 days of S): 297 ng/g | concentration at 16 days of supplementation (4 g/kg of feed, THY4, 4 g of thymol/kg of feed, 16 days of S): 295 ng/g | concentration at 26 days of supplementation (4 g/kg of feed, THY4, 4 g of thymol/kg of feed, 26 days of S): 282 ng/g | concentration at 17 days after supplement withdrawal (4 g/kg of feed, THY4, 4 g of thymol/kg of feed, pS, 17 days of supplement withdrawal): 36.3 ng/g | concentration at 2 days of supplementation (6.25 g/kg of feed, THY6, 6.25 g of thymol/kg of feed, 2 days of S): 42.9 ng/g | concentration at 9 days of supplementation (6.25 g/kg of feed, THY6, 6.25 g of thymol/kg of feed, 9 days of S): 407 ng/g | concentration at 16 days of supplementation (6.25 g/kg of feed, THY6, 6.25 g of thymol/kg of feed, 16 days of S): 372 ng/g | concentration at 26 days of supplementation (6.25 g/kg of feed, THY6, 6.25 g of thymol/kg of feed, 26 days of S): 377 ng/g | concentration at 17 days after supplement withdrawal (6.25 g/kg of feed, THY6, 6.25 g of thymol/kg of feed, pS, 17 days of supplement withdrawal): 69.5 ng/g | highest concentration of THY detected in egg yolk (highest of the study): ~406 ng/g of egg yolk
